In US11504330B2, “Formulation comprising particles containing a water-swellable or water-soluble polymeric component and a lipid component” (PERORA GMBH, priority 2014, dated 2022):

Assay: Tryptophan release / dissolution in fasted-state simulated gastric fluid (FaSSGF)
Assay type: physicochemical
Conditions: 30 mg powder in 22 mL FaSSGF, 37° C., agitated
Procedure: FaSSGF was prepared by dissolving 1 g of NaCl (Sigma-Aldrich) in 450 mL of water, adding 30 mg of SIF powder (biorelvant.com), adjusting the pH to 2.0 with 0.1 N HCl (Sigma-Aldrich) and adding water to a final volume of 500 mL.
30 mg of tryptophan powder were suspended in 22 mL FaSSGF at 37° C. and agitated (shaker ST5 from CAT, Germany). Aliquots were removed at time intervals of 5 min, and tryptophan concentration was quantified using absorption measurement at a wavelength of 280 nm in a NanoDrop® 2000 device (Thermo Scientific, USA).

SMILES: N[C@@H](Cc1c[nH]c2ccccc12)C(=O)O [Tryptophan, L-Tryptophan]
- time after which quantitatively dissolved: 10 min
